Assay results reported in ChEMBL document CHEMBL3885861, “Open TG-GATES”.

Species on record: Rattus norvegicus
Experiment: Open TG-GATES - Regimen: Single
Format: toxicity, organism-based, Sprague-Dawley
Design: regimen Single, gender Male, age 6 weeks
Details: in vivo, po, route gavage; for gamma-GTP / ALT / AST / BUN / CRE / Ca / Cl / DBIL / GLC / IP / K / LDH / Na / PL / RALB / TBIL / TC / TP: tissue Plasma; for Bas / Eos / Fbg / Hb / Ht / Lym / MCHC / MCV / Mono / Neu / Plat / RBC / Ret / WBC: tissue Blood; for KIDNEY_TOTAL: tissue Kidney; for LIVER: tissue Liver
[1] = 50 mg/kg, 24 h, dose level High

C[C@@H]1C[C@H]2[C@@H]3CCC4=CC(=O)C=C[C@]4(C)[C@@]3(F)[C@@H](O)C[C@]2(C)[C@@]1(O)C(=O)CO [DEXAMETHASONE]
gamma-GTP (5 mg/kg, 24 h, dose level Middle): 0 IU/L
TERMINAL_BW (50 mg/kg, 3 h, dose level High): 214.6 g
Bas (50 mg/kg, 3 h, dose level High): 0%
Eos (50 mg/kg, 3 h, dose level High): 0.8%
Fbg (50 mg/kg, 3 h, dose level High): 244.4 mg/dL
Hb (50 mg/kg, 3 h, dose level High): 13.1 g/dL
Ht (50 mg/kg, 3 h, dose level High): 40.1%
Lym (50 mg/kg, 3 h, dose level High): 58%
MCHC (50 mg/kg, 3 h, dose level High): 32.5%
MCV (50 mg/kg, 3 h, dose level High): 63.1 fL
Mono (50 mg/kg, 3 h, dose level High): 2.8%
Neu (50 mg/kg, 3 h, dose level High): 38.8%
Plat (50 mg/kg, 3 h, dose level High): 125.2 x10_4/uL
RBC (50 mg/kg, 3 h, dose level High): 635.6 x10_4/ul
Ret (50 mg/kg, 3 h, dose level High): 7.4%
WBC (50 mg/kg, 3 h, dose level High): 35.1 x10_2/uL
KIDNEY_TOTAL (50 mg/kg, 3 h, dose level High): 0.6 g
LIVER (50 mg/kg, 3 h, dose level High): 10.7 g
ALT (50 mg/kg, 3 h, dose level High): 40.4 IU/L
AST (50 mg/kg, 3 h, dose level High): 75.2 IU/L
BUN (50 mg/kg, 3 h, dose level High): 15.6 mg/dL
CRE (50 mg/kg, 3 h, dose level High): 0.4 mg/dL
Ca (50 mg/kg, 3 h, dose level High): 11.3 mg/dL
Cl (50 mg/kg, 3 h, dose level High): 103.2 meq/L
DBIL (50 mg/kg, 3 h, dose level High): 0.012 mg/dL
GLC (50 mg/kg, 3 h, dose level High): 198.8 mg/dL
IP (50 mg/kg, 3 h, dose level High): 11.5 mg/dL
K (50 mg/kg, 3 h, dose level High): 3.9 meq/L
LDH (50 mg/kg, 3 h, dose level High): 85.4 IU/L
Na (50 mg/kg, 3 h, dose level High): 142 meq/L
PL (50 mg/kg, 3 h, dose level High): 152.8 mg/dL
RALB (50 mg/kg, 3 h, dose level High): 4.3 g/dL
TBIL (50 mg/kg, 3 h, dose level High): 0.04 mg/dL
TC (50 mg/kg, 3 h, dose level High): 91 mg/dL
TP (50 mg/kg, 3 h, dose level High): 6.1 g/dL
gamma-GTP (50 mg/kg, 3 h, dose level High): 1 IU/L
TERMINAL_BW (50 mg/kg, 6 h, dose level High): 208.4 g
Bas (50 mg/kg, 6 h, dose level High): 0%
Eos (50 mg/kg, 6 h, dose level High): 0%
Fbg (50 mg/kg, 6 h, dose level High): 244.4 mg/dL
Hb (50 mg/kg, 6 h, dose level High): 13.3 g/dL
Ht (50 mg/kg, 6 h, dose level High): 40.4%
Lym (50 mg/kg, 6 h, dose level High): 61.8%
MCHC (50 mg/kg, 6 h, dose level High): 32.9%
MCV (50 mg/kg, 6 h, dose level High): 63.8 fL
Mono (50 mg/kg, 6 h, dose level High): 3.4%
Neu (50 mg/kg, 6 h, dose level High): 34.4%
Plat (50 mg/kg, 6 h, dose level High): 119.3 x10_4/uL
RBC (50 mg/kg, 6 h, dose level High): 634 x10_4/ul
Ret (50 mg/kg, 6 h, dose level High): 7.1%
WBC (50 mg/kg, 6 h, dose level High): 26.8 x10_2/uL
KIDNEY_TOTAL (50 mg/kg, 6 h, dose level High): 0.5 g
LIVER (50 mg/kg, 6 h, dose level High): 10.5 g
ALT (50 mg/kg, 6 h, dose level High): 40.8 IU/L
AST (50 mg/kg, 6 h, dose level High): 83 IU/L
BUN (50 mg/kg, 6 h, dose level High): 16.2 mg/dL
CRE (50 mg/kg, 6 h, dose level High): 0.4 mg/dL
Ca (50 mg/kg, 6 h, dose level High): 11.4 mg/dL
Cl (50 mg/kg, 6 h, dose level High): 104.6 meq/L
DBIL (50 mg/kg, 6 h, dose level High): 0.01 mg/dL
GLC (50 mg/kg, 6 h, dose level High): 215.2 mg/dL
IP (50 mg/kg, 6 h, dose level High): 8.1 mg/dL
K (50 mg/kg, 6 h, dose level High): 4.1 meq/L
LDH (50 mg/kg, 6 h, dose level High): 80.6 IU/L
Na (50 mg/kg, 6 h, dose level High): 140.2 meq/L
PL (50 mg/kg, 6 h, dose level High): 157.6 mg/dL
RALB (50 mg/kg, 6 h, dose level High): 4.6 g/dL
TBIL (50 mg/kg, 6 h, dose level High): 0.036 mg/dL
TC (50 mg/kg, 6 h, dose level High): 106.4 mg/dL
TP (50 mg/kg, 6 h, dose level High): 6.5 g/dL
gamma-GTP (50 mg/kg, 6 h, dose level High): 0 IU/L
TERMINAL_BW (50 mg/kg, 9 h, dose level High): 200.5 g
Bas (50 mg/kg, 9 h, dose level High): 0%
Eos (50 mg/kg, 9 h, dose level High): 0%
Fbg (50 mg/kg, 9 h, dose level High): 244.6 mg/dL
Hb (50 mg/kg, 9 h, dose level High): 13.5 g/dL
Ht (50 mg/kg, 9 h, dose level High): 41%
Lym (50 mg/kg, 9 h, dose level High): 42.8%
MCHC (50 mg/kg, 9 h, dose level High): 32.9%
MCV (50 mg/kg, 9 h, dose level High): 64.5 fL
Mono (50 mg/kg, 9 h, dose level High): 2%
Neu (50 mg/kg, 9 h, dose level High): 55.2%
Plat (50 mg/kg, 9 h, dose level High): 121.9 x10_4/uL
RBC (50 mg/kg, 9 h, dose level High): 636.2 x10_4/ul
Ret (50 mg/kg, 9 h, dose level High): 5.4%
WBC (50 mg/kg, 9 h, dose level High): 15.4 x10_2/uL
KIDNEY_TOTAL (50 mg/kg, 9 h, dose level High): 0.5 g
LIVER (50 mg/kg, 9 h, dose level High): 10.8 g
ALT (50 mg/kg, 9 h, dose level High): 39 IU/L
AST (50 mg/kg, 9 h, dose level High): 78.2 IU/L
BUN (50 mg/kg, 9 h, dose level High): 18.2 mg/dL
CRE (50 mg/kg, 9 h, dose level High): 0.4 mg/dL
Ca (50 mg/kg, 9 h, dose level High): 10.6 mg/dL
Cl (50 mg/kg, 9 h, dose level High): 103.2 meq/L
DBIL (50 mg/kg, 9 h, dose level High): 0.01 mg/dL
GLC (50 mg/kg, 9 h, dose level High): 238.8 mg/dL
IP (50 mg/kg, 9 h, dose level High): 6.6 mg/dL
K (50 mg/kg, 9 h, dose level High): 4.2 meq/L
LDH (50 mg/kg, 9 h, dose level High): 83.4 IU/L
Na (50 mg/kg, 9 h, dose level High): 138 meq/L
PL (50 mg/kg, 9 h, dose level High): 177.6 mg/dL
RALB (50 mg/kg, 9 h, dose level High): 4.6 g/dL
TBIL (50 mg/kg, 9 h, dose level High): 0.032 mg/dL
TC (50 mg/kg, 9 h, dose level High): 105.6 mg/dL
TP (50 mg/kg, 9 h, dose level High): 6.5 g/dL
gamma-GTP (50 mg/kg, 9 h, dose level High): 0.8 IU/L
TERMINAL_BW [1]: 218.5 g
Bas [1]: 0%
Eos [1]: 1.2%
Fbg [1]: 231 mg/dL
Hb [1]: 13.8 g/dL
Ht [1]: 42.2%
Lym [1]: 13.8%
MCHC [1]: 32.8%
MCV [1]: 63.1 fL
Mono [1]: 7.2%
Neu [1]: 78.4%
Plat [1]: 129.6 x10_4/uL
RBC [1]: 667.6 x10_4/ul
Ret [1]: 4.6%
WBC [1]: 26.2 x10_2/uL
KIDNEY_TOTAL [1]: 0.3 g
LIVER [1]: 14.3 g
ALT [1]: 52.8 IU/L
AST [1]: 102.2 IU/L
BUN [1]: 19.2 mg/dL
CRE [1]: 0.5 mg/dL
Ca [1]: 11.2 mg/dL
Cl [1]: 99.8 meq/L
DBIL [1]: 0.018 mg/dL
GLC [1]: 273.2 mg/dL
IP [1]: 6.7 mg/dL
K [1]: 4.6 meq/L
Na [1]: 138.8 meq/L
PL [1]: 260.8 mg/dL
RALB [1]: 4.6 g/dL
TBIL [1]: 0.042 mg/dL
TC [1]: 120.4 mg/dL
TP [1]: 6.5 g/dL
gamma-GTP [1]: 0.4 IU/L
